The values below come from publication PMC12308805, “Ultrahigh-Throughput Virtual Screening Strategies against PPI Targets: A Case Study of STAT Inhibitors” (Journal of Chemical Information and Modeling, 2025).

Values joined by “and” are separate entries in the source; they are usually repeats but may differ in a detail not shown here. Equal entries are not always repeated. Ends that are not written are not given here.

The first assay deals with T1, STAT3 (127–770) SH2 domain (Homo sapiens, UniProt P40763).
T1 construct: For STAT3 (127–770), the final concentration of the protein was 200 nM; made in house
T1 sequence (P40763 127-770): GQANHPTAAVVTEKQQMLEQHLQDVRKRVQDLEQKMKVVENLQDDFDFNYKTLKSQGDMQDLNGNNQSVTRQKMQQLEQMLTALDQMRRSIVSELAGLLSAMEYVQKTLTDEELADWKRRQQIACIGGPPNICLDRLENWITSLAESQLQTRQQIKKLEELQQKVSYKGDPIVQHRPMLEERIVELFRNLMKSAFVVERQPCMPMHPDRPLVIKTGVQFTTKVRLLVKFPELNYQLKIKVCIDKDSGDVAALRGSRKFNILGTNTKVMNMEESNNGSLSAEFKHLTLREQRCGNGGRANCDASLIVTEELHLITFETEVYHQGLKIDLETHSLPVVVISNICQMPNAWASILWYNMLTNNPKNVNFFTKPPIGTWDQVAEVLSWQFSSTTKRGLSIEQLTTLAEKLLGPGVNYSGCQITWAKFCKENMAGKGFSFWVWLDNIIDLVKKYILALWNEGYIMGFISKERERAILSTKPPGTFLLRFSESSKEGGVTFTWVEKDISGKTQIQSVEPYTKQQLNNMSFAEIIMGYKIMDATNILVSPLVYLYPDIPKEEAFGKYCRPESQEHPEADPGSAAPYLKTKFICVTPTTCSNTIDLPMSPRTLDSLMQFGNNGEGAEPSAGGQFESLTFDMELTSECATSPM
As to the kind of experiment: Fluorescence polarization assay (FP-assay), STAT3 SH2 domain. Type of assay: binding. Also noted: key to identified as active in FP-assay: A compound was identified as active, if it had a mean IC50 value under 100 μM.
Conditions: not given
Here is the method:
The respective protocols for the expression and purification of the STAT3 SH2 and STAT5b SH2 domains were published in our recent works. Fluorescence polarization assays (FP-assays) were performed on a Molecular Devices SpectraMax iD5Multimode Microplate Reader (San Jose, CA, USA) using Greiner black 384-well flat-bottom nonbinding microplates with 40 μL final well volumes. The fluorescent peptides (5-FAM-G(pTyr)-LPQTV-NH2 and 5-FAM-G(pTyr)-LVLDKW-NH2, purchased from GenScript Biotech Ltd., Piscataway, NJ, USA), as well as the proteins, were diluted with a buffer containing 50 mM NaCl, 10 mM HEPES (4-(2-hydroxyethyl)-1-piperazineethanesulfonic acid), 1 mM EDTA (ethylenediaminetetraacetic acid), 2 mM DTT (dithiothreitol), and 0.1% Triton X-100, pH 7.5. For STAT3 (127–770), the final concentration of the protein was 200 nM, and the fluorescent peptide (5-FAM-G(pTyr)-LPQTV-NH2) was added at a final concentration of 5 nM; for STAT5b (136–703), the final concentration of the protein was 500 nM, and the fluorescent peptide (5-FAM-G(pTyr)-LVLDKW-NH2) was added at a final concentration of 10 nM. The wells were treated with varying concentrations of inhibitors (1250 to 0.11 μM final concentrations). The final DMSO content was 2.5%. After mixing, the protein and inhibitors were incubated at room temperature for 30 min, then the fluorescent peptide was added, and the plate was incubated for another 20 min prior to the fluorescence readout (extinction wavelength: 475 nm, emission wavelength: 520 nm). The measurements were carried out in at least three biological replicates. Fluorescence polarization was calculated from the perpendicular and parallel fluorescence intensities and then plotted against concentration. The IC50 values were determined after fitting quadratic dose–response curves on the data points in GraphPad Prism 8.0.1. […] All plotted curves and data points for the hit compounds are included in Section 2 of the Supporting Information.
On the technique in general: In fluorescence polarisation assays a small probe gives low polarisation when free and higher when bound to something large.
On to `Nc1ccc(-n2ccc(C(=O)O)n2)nc1` [S3_B12, Nc1ccc(nc1)n1ccc(n1)C(=O)O], for which the “identified as weakly binding in FP-assay” value is “weakly binding (A weakly binding compound (mean IC50 value higher than 100 μM))”.

Consider `NC(=O)C1CCN(C(=O)c2ccccc2NC(=O)c2cccc(NC(=O)CCn3ccnc3)c2)CC1` [S3_E3, NC(=O)C1CCN(CC1)C(=O)c2ccccc2NC(=O)c3cccc(c3)NC(=O)CCn4cc[n]c4], for which the “identified as weakly binding in FP-assay” value is reported as “weakly binding (A weakly binding compound (mean IC50 value higher than 100 μM))”.

For the compound `NC(=O)CSc1ccccc1C(=O)NC[C@H](O)COc1ccc2c(c1)OCO2` [S3_E4, NC(=O)CSc1ccccc1C(=O)NC[C@H](O)COc(cc2)cc(c23)OCO3], the “identified as active in FP-assay” value is on record as “active”.

Regarding `COc1ccccc1COC[C@@H](O)CN[C@H](C)c1cccc(S(N)(=O)=O)c1` [S3_E5, COc1ccccc1COC[C@@H](O)C[NH][C@H](C)c2cccc(c2)S(=O)(=O)N], the “identified as active in FP-assay” value was “active”.

For the compound `O=[N+]([O-])c1ccccc1S(=O)(=O)NC[C@H](O)COc1ccc2c(c1)OCO2` [S3_E6, O=[N+]([O-])c1ccccc1S(=O)(=O)NC[C@H](O)COc(cc2)cc(c23)OCO3], the “identified as active in FP-assay” value was “active”.

The assay is the same for the next values; noted with them: FP-assay, mean IC50, at least three biological replicates.
On to `Nc1ccc(-n2ccc(C(=O)O)n2)nc1` [S3_B12, Nc1ccc(nc1)n1ccc(n1)C(=O)O], for which the IC50 (usually the concentration at which inhibition is half-maximal) is > 100 µM and 104 µM.

With `NC(=O)C1CCN(C(=O)c2ccccc2NC(=O)c2cccc(NC(=O)CCn3ccnc3)c2)CC1` [S3_E3, NC(=O)C1CCN(CC1)C(=O)c2ccccc2NC(=O)c3cccc(c3)NC(=O)CCn4cc[n]c4], the IC50 was found to be 472 ± 112 µM.

`NC(=O)CSc1ccccc1C(=O)NC[C@H](O)COc1ccc2c(c1)OCO2` [S3_E4, NC(=O)CSc1ccccc1C(=O)NC[C@H](O)COc(cc2)cc(c23)OCO3] gave an IC50 of 13.6 ± 6.1 µM.

On to `COc1ccccc1COC[C@@H](O)CN[C@H](C)c1cccc(S(N)(=O)=O)c1` [S3_E5, COc1ccccc1COC[C@@H](O)C[NH][C@H](C)c2cccc(c2)S(=O)(=O)N], for which 26.7 ± 22.2 µM corresponded to half-maximal inhibition (IC50).

As for `O=[N+]([O-])c1ccccc1S(=O)(=O)NC[C@H](O)COc1ccc2c(c1)OCO2` [S3_E6, O=[N+]([O-])c1ccccc1S(=O)(=O)NC[C@H](O)COc(cc2)cc(c23)OCO3], the IC50 came out at 21.7 ± 10.4 µM.

The next assay concerns STAT3.
Assay: not given
Particulars: sheet 6QHD_actives_decoys, retrospective screening set for STAT3 SH2 domain (PDB 6QHD); decoys are presumed inactives, not tested; ref DUD-E; cited from earlier work.
Regarding `CCCCN/N=C(C(=O)OC)/C(C(=O)OC)=C(\O)C(=O)Nc1nc2ccc([N+](=O)[O-])cc2s1` [Decoy925], the Type result is “Inactive (Decoy)”.

For `CO[C@@H]1[C@H](O)[C@H](OC[C@H]2O[C@@H](O[C@@H]3CC[C@]4(C)[C@H](CC[C@@H]5[C@@H]4CC[C@@]4(C)[C@@H](C6=CC(=O)OC6)CC[C@]54O)C3)[C@@H](O)[C@@H](O)[C@H]2O)O[C@@H](C)[C@@H]1O` [Decoy926], the Type result is given as “Inactive (Decoy)”.

With `COc1cc(-c2nnc(SCC(=O)N/N=C/c3cc(OC)c(OC(C)=O)c(OC)c3)n2-c2ccccc2)cc(OC)c1OC` [Decoy928], the Type result was “Inactive (Decoy)”.

As for `C=CCO[C@@H]1[C@H]2OC(C)(C)O[C@H]2O[C@@H]1[C@H](O)Cn1c(=O)n(C[C@@H](O)[C@H]2O[C@@H]3OC(C)(C)O[C@@H]3[C@H]2OCC=C)c2cc(C)ccc21` [Decoy929], the Type entry is reported as “Inactive (Decoy)”.

For `CC1(C)CC[C@]2(C(=O)O[C@@H]3O[C@H](CO)[C@@H](O)[C@H](O)[C@H]3O)CC[C@]3(C)C(=CC[C@H]4[C@@]5(C)CC[C@H](O[C@H]6OC[C@@H](O)[C@@H](O)[C@@H]6O)[C@@](C)(CO)[C@H]5CC[C@]43C)[C@@H]2C1` [Decoy930], the Type entry is reported as “Inactive (Decoy)”.

`CC(=O)N[C@H]1[C@@H](OC(=O)CCn2c(=O)oc3ccccc32)O[C@@H](COC(C)=O)[C@@H](OC(C)=O)[C@H]1OC(C)=O` [Decoy931]: the Type entry is “Inactive (Decoy)”.

For `Cc1cc(C)cc(NC(=O)COc2ccc(S(=O)(=O)Nc3ccc(C(=O)O)cc3)cc2[N+](=O)[O-])c1` [Decoy932], the Type result is recorded as “Inactive (Decoy)”.

As for `CCOc1ccc(NC(=O)CSC2=C(C#N)[C@@H](c3ccco3)C(C(=O)Nc3cc(OC)ccc3OC)=C(C)N2)cc1` [Decoy933], the Type entry is “Inactive (Decoy)”.

On to `CCOC(=O)c1c(NC(=O)CCSc2nnc(COC)n2N)sc2c1CCCC2` [Decoy934], for which the Type result is on record as “Inactive (Decoy)”.

For the compound `C/C=C(/C[C@H](O)N(C=O)Cc1cnc(C)nc1N)SS/C(=C/C)C[C@@H](O)N(C=O)Cc1cnc(C)nc1N` [Decoy935], the Type result is given as “Inactive (Decoy)”.

As to `COc1ccccc1OCCNC[C@@H](O)Cn1c2ccccc2c2c(OC[C@@H](O)CNCCOc3ccccc3OC)cccc21` [Decoy936], the Type result is listed as “Inactive (Decoy)”.

Regarding `CCN(CC)c1ccc(/C=N/Nc2nc(SCC(=O)n3nc(C)cc3C)n[nH]2)c(O)c1` [Decoy937], the Type result is “Inactive (Decoy)”.

With `CCOC(=O)CCCCC(=O)c1[nH]c(=O)[nH]c1CSc1nnc2c3ccccc3n(CCc3ccccc3)c2n1` [Decoy938], the Type entry was “Inactive (Decoy)”.

For `Cc1ccc(S(=O)(=O)NCCc2nnc(NC(=O)CSCc3ccc([N+](=O)[O-])cc3)s2)cc1` [Decoy939], the Type result is on record as “Inactive (Decoy)”.

`COc1cc(Cc2cc(OC)c(OC)cc2NS(=O)(=O)c2ccc3c(c2)NC(=O)CO3)c(NS(=O)(=O)c2ccc3c(c2)NC(=O)CO3)cc1OC` [Decoy940]: the Type entry is recorded as “Inactive (Decoy)”.

With `COc1c(O)ccc(/C=N/NC(=O)/C(=C\c2ccc(N(C)C)cc2)NC(=O)c2ccccc2)c1[N+](=O)[O-]` [Decoy941], the Type result is given as “Inactive (Decoy)”.

In the case of `CCC/C=C/[C@@H](C(=O)NCS(=O)(=O)c1ccc(C)cc1)N(Cc1ccco1)C(=O)c1c(O)cccc1O` [Decoy942], the Type result is “Inactive (Decoy)”.

For `CO[C@H]1C[C@H](O[C@H]2CC[C@]3(C=O)[C@H]4CC[C@]5(C)[C@@H](C6=CC(=O)OC6)CC[C@]5(O)[C@@H]4CC[C@]3(O)C2)O[C@H](C)[C@H]1O[C@H]1O[C@H](CO)[C@@H](O)[C@H](O)[C@H]1O` [Decoy943], the Type result is on record as “Inactive (Decoy)”.

With `COc1ccc2[nH]cc(CCN/C(=N/C(=O)/C=C/c3cc(OC)c(OC)c(OC)c3)Nc3nc(C)cc(C)n3)c2c1` [Decoy944], the Type result was “Inactive (Decoy)”.

Turning to `C[C@@H](NC(=O)[C@@H](N)Cc1ccc(O)cc1)C(=O)NCC(=O)N[C@@H](Cc1ccccc1)C(=O)NNC(=O)[C@H](Cc1ccccc1)NC(=O)CNC(=O)[C@@H](C)NC(=O)[C@@H](N)Cc1ccc(O)cc1` [Decoy945], the Type result is “Inactive (Decoy)”.

As for `Nc1ncnc2c1ncn2[C@@H]1O[C@H](CO[P@](=O)(O[C@H](CO)[C@@H](O)[C@H](O)[C@@H](O)C=O)OP(=O)(O)O)[C@@H](O)[C@H]1O` [Decoy946], the Type result is given as “Inactive (Decoy)”.

As for `CCCOc1cccc(C(=O)NC(=S)Nc2ccc(S(=O)(=O)Nc3cc(OC)ncn3)cc2)c1` [Decoy947], the Type entry was “Inactive (Decoy)”.

With `Cc1ccc(C)c(NC(=O)CCC(=O)N/N=C(/S)NC(=O)c2ccccc2[N+](=O)[O-])c1` [Decoy948], the Type entry is “Inactive (Decoy)”.

For the compound `OC[C@@H]1O[C@H](O[C@H]2O[C@H](CO)[C@H](O)[C@H](OCc3ccccc3)[C@@H]2OCc2ccccc2)[C@H](OCc2ccccc2)[C@H](OCc2ccccc2)[C@@H]1O` [Decoy949], the Type result was “Inactive (Decoy)”.

Take `CCCCN(CC)S(=O)(=O)c1cc([N+](=O)[O-])ccc1NN/C=C1/C(=O)N=C(O)NC1=O` [Decoy950]: the Type result was “Inactive (Decoy)”.

Take `CCOC(=O)C1=C(C)N(CCOC)C(=O)/C1=C\c1ccc(CNC(=O)C(=O)Nc2ccc(C(=O)OCC)cc2)o1` [Decoy951]: the Type result is recorded as “Inactive (Decoy)”.

With `CCN(CC)Cc1nnn(-c2nonc2N)c1C(=O)N/N=C(\C)c1ccc(OCc2ccc(Cl)cc2Cl)cc1` [Decoy952], the Type result is “Inactive (Decoy)”.

For `CCCn1c(N)c(N(CCOC)C(=O)Cc2coc3cc(C)c(C(C)C)cc23)c(=O)[nH]c1=O` [Decoy953], the Type entry is “Inactive (Decoy)”.

For `Cc1c(C#N)c(NC(=O)CSc2nnc(COc3ccccc3F)n2N)n(C[C@@H]2CCCO2)c1C` [Decoy954], the Type entry is listed as “Inactive (Decoy)”.

Consider `CC(=O)N[C@@H]1[C@@H](OC(C)=O)[C@H](OC(C)=O)[C@@H](COC(C)=O)O[C@H]1Sc1nnc(-c2ccccc2)n1C(C)C` [Decoy955], for which the Type result is “Inactive (Decoy)”.

`CCCCCCCCO[C@@H]1[C@@H](O)[C@@H](O)O[C@H](Cn2c(=O)n(C[C@H]3O[C@H](O)[C@H](O)[C@@H](OCCCCCCCC)[C@@H]3O)c3cc(Cl)ccc32)[C@H]1O` [Decoy956]: the Type entry is “Inactive (Decoy)”.

Consider `CCCCCCCCO[C@@H]1[C@@H](O)[C@H](O)O[C@H](Cn2c(=O)n(C[C@H]3O[C@@H](O)[C@H](O)[C@@H](OCCCCCCCC)[C@@H]3O)c3cc(Cl)ccc32)[C@H]1O` [Decoy957], for which the Type entry is on record as “Inactive (Decoy)”.

`CC(=O)Nc1ccc(S(=O)(=O)Nc2nnc(CCNS(=O)(=O)c3ccc(C)cc3)s2)cc1` [Decoy958]: the Type result is recorded as “Inactive (Decoy)”.

In the case of `COC(=O)[C@@H]1O[C@@H](O[C@@H]2CC[C@@]3(C)[C@@H](CC[C@H]4[C@H]3C(=O)C[C@@]3(C)[C@@H]4CC[C@]3(O)/C(COC(C)=O)=N/NC(N)=O)C2)[C@H](OC(C)=O)[C@@H](OC(C)=O)[C@@H]1OC(C)=O` [Decoy959], the Type result was “Inactive (Decoy)”.

For the compound VAITVLVK [Decoy793], the Type entry is on record as “Inactive (Decoy)”.

On to WAGGDASGE [Decoy910], for which the Type entry was “Inactive (Decoy)”.
